Data: publication PMC10974622, “Hybrid Peptide-Alkoxyamine Drugs: A Strategy for the Development of a New Family of Antiplasmodial Drugs” (Molecules, 2024)
Read-outs that look alike come from different tables or passages of the source. Where a SMILES comes first, the peptide text is derived from it. [ ]: non-standard residue; d: D form. The star is where a group is joined. Boc = CC(C)(C)OC(=O)*; OBn = c1ccc(CO*)cc1

Tests used:
Vero cells = details: cited from earlier work
[1] = system: P. falciparum strain F32-ART (artemisinin-resistant); experiment: microbe, parasite or virus in culture; format: cell-based, Plasmodium falciparum; details: for Selectivity Index CC50/IC50: cytotoxicity (Vero cells)/antiplasmodial activity (F32-ART) ratio
Source text: The antimalarial activity of peptide-alkoxyamine hybrids was first evaluated in the in vitro antiproliferative test (IC50) using the artemisinin-resistant strain F32-ART (Table 2, Table S1). The roles of the N-substitution of the alkoxyamine moiety (TEMPO- or DBNO-based, for example, A3L/A8L, line 1/line 10), of the configuration (L or D of the peptide, A3L/A3D, line 1/line 2), of the N-protection of the peptide (A3L/A4L or A5L, line 1/ lines 3 and 5) were examined. According to standard rules in the malaria field, only molecules having IC50 values below 1 μM were considered active.
The F32-ART (artemisinin-resistant) strain and the F32-TEM (artemisinin-sensitive strain) were cultured according to Trager and Jensen in RPMI 1640 medium (Fisher Scientific, Illkirch, France) supplemented with 5% human serum (Etablissement français du Sang, Toulouse, France) at 2% hematocrit with type O human blood (Etablissement français du Sang, Toulouse, France), 37 °C, and 5% CO2 in a humidified atmosphere.
(§1) IC50 values corresponding to 50% inhibition of P. falciparum growth were determined by SYBR Green assay, and the assessment of cytotoxicity was performed on Vero cells (cell line from the kidney of a normal adult African green monkey), as previously published. The selectivity index corresponded to the cytotoxicity/activity ratio.

in vitro = format: cell-based, African green monkey; details: Cytotoxicity CC50
Procedure: as §1

[2] = Plasmodium falciparum, F32, read-out: Antiplasmodial Activity IC50, strain F32-ART, SYBR Green assay, mean ± SEM of 3 to 6 experiments
[3] = read-out: Antiplasmodial Activity IC50, strain F32-ART, SYBR Green assay, mean ± SEM of 3 to 6 experiments
[4] = strain F32-ART, SYBR Green assay, mean ± SEM of 3 to 6 experiments, read-out: Antiplasmodial Activity IC50

Row | SMILES | CC50 (Vero cells) [µM] | IC50 [1, 4] [µM] | CC50 (in vitro; African green monkey) [µM] | also measured
1 | CC(ON1C(C)(C)CCCC1(C)C)c1ccc(NC(=O)[C@H](Cc2ccccc2)NC(=O)[C@@H](NC(=O)[C@H](Cc2ccccc2)NC(=O)CCC(=O)OCc2ccccc2)C(C)C)cc1 (some centres unmarked) [A6L] | > 50 |  |  | IC50 [1, 2]: 7 µM; Selectivity Index CC50/IC50 [1]: >6.9; IC50 [1, 3]: 7.2 µM
2 | CC(C)[C@H](NC(=O)[C@H](Cc1ccccc1)NC(=O)OC(C)(C)C)C(=O)N[C@@H](Cc1ccccc1)C(=O)O [P7L, Boc-L-Phe-L-Val-L-Phe–OH] (Boc-Phe-Val-Phe-OH) | > 50 | > 50 |  | 
3 | CC(C)[C@H](NC(=O)[C@@H](N)Cc1ccccc1)C(=O)N[C@@H](Cc1ccccc1)C(=O)O [P11L] (H-Phe-Val-Phe-OH) | > 50 | > 10 |  | 
4 | CC(C)[C@H](NC(=O)[C@@H](N)Cc1ccccc1)C(=O)N[C@@H](Cc1ccccc1)C(=O)O [P18L] (H-Phe-Val-Phe-OH) | > 25 | > 5 |  | 
5 | CC(C)[C@@H](NC(=O)[C@@H](Cc1ccccc1)NC(=O)OC(C)(C)C)C(=O)N[C@H](Cc1ccccc1)C(=O)O [P7D] (Boc-[dF]-[dV]-[dF]-OH) |  | > 10 | > 50 | 
6 | CC(C)[C@H](NC(=O)[C@@H](N)Cc1ccccc1)C(=O)N[C@@H](Cc1ccccc1)C(=O)OCc1ccccc1 [P8L] (H-Phe-Val-Phe-OBn) |  | > 50 | > 50 | 
7 | CC(ON1C(C)(C)CCCC1(C)C)c1ccccc1 (centres unmarked) [compound 4, reference compound] |  |  |  | IC50 [1, 2]: > 10 µM
8 | CC(C)[C@@H](NC(=O)[C@H](N)Cc1ccccc1)C(=O)N[C@H](Cc1ccccc1)C(=O)O [P11D] (H-[dF]-[dV]-[dF]-OH; N-terminus and C-terminus assumed) |  |  | > 50 | 
9 | CCc1ccc(NC(=O)[C@H](Cc2ccccc2)NC(=O)[C@@H](NC(=O)[C@H](Cc2ccccc2)NC(=O)OC(C)(C)C)C(C)C)cc1 [P21L] | > 50 | > 50 |  | 
10 | CCc1ccc(NC(=O)[C@@H](Cc2ccccc2)NC(=O)[C@H](NC(=O)[C@@H](Cc2ccccc2)NC(=O)OC(C)(C)C)C(C)C)cc1 [P21D] | > 50 | > 50 |  | 
11 | C[C@@H]1CC[C@H]2[C@@H](C)C(=O)O[C@@H]3O[C@@]4(C)CC[C@@H]1[C@]32OO4 [ART, Artemisinin, reference compound] |  |  | > 50 | IC50 [1, 2]: 0.031 ± 0.006 µM; Selectivity Index CC50/IC50 [1]: >1500
12 | CC(ON(C(C)(C)C)C(C)(C)C)c1ccc(NC(=O)[C@@H](Cc2ccccc2)NC(=O)[C@H](NC(=O)[C@H](N)Cc2ccccc2)C(C)C)cc1 (some centres unmarked) [AW230] |  |  | 9 ± 1.2 | IC50 [1, 2]: 3.73 ± 0.26 µM
13 | CC(C)[C@@H](NC(=O)[C@@H](Cc1ccccc1)NC(=O)OC(C)(C)C)C(=O)N[C@H](Cc1ccccc1)C(=O)OCc1ccccc1 [P6D, Boc-D-Phe-D-Val-D-Phe–OBn] (Boc-[dF]-[dV]-[dF]-OBn) |  | > 50 | 3.2 ± 0.2 | 
14 | CC(C)[C@H](NC(=O)[C@H](Cc1ccccc1)NC(=O)OC(C)(C)C)C(=O)N[C@@H](Cc1ccccc1)C(=O)OCc1ccccc1 [P6L] (Boc-Phe-Val-Phe-OBn) |  | > 50 | > 50 | 
15 | CC(C)[C@H](NC(=O)[C@H](Cc1ccccc1)NC(=O)CCC(=O)OCc1ccccc1)C(=O)N[C@@H](Cc1ccccc1)C(=O)OCc1ccccc1 [P9L, N-(Bn)succinyl-L-Phe-L-Val-L-Phe–OBn] |  | > 50 | > 50 | 
16 | CC(ON1C(C)(C)CCCC1(C)C)c1ccc(NC(=O)[C@@H](Cc2ccccc2)NC(=O)[C@H](NC(=O)[C@@H](Cc2ccccc2)NC(=O)OC(C)(C)C)C(C)C)cc1 (some centres unmarked) [A3D] |  |  | > 50 | IC50 [1, 2]: > 50 µM
17 | CCc1ccc(NC(=O)[C@@H](Cc2ccccc2)NC(=O)[C@H](NC(=O)[C@H](N)Cc2ccccc2)C(C)C)cc1 [P22D] |  |  |  | CC50 (in vitro): 11 ± 1.6 µM
18 | CC(C)[C@@H](NC(=O)[C@H](N)Cc1ccccc1)C(=O)N[C@H](Cc1ccccc1)C(=O)OCc1ccccc1 [P8D] (H-[dF]-[dV]-[dF]-OBn) |  | > 50 | > 50 | 
19 | CC(ON1C(C)(C)CCCC1(C)C)c1ccc(NC(=O)[C@@H](Cc2ccccc2)NC(=O)[C@H](NC(=O)[C@H](N)Cc2ccccc2)C(C)C)cc1 (some centres unmarked) [A5D] |  |  |  | Selectivity Index CC50/IC50 [1]: 1.0; IC50 [1, 3]: 2.25 ± 0.17 µM
